Measured values as given in article PMC8373983, “Effect of salinity on the zinc(II) binding efficiency of siderophore functional groups and implications for salinity tolerance mechanisms in barley” (Scientific Reports, 2021).
Values joined by “and” are separate entries in the source; they are usually repeats but may differ in a detail not shown here. Identical values can stand only once.

What was measured:
[1] = Ligand protonation constants, potentiometric titration in NaCl; assay type: physicochemical
Protocol: (§1) Potentiometric measurements were carried out at T = 298.1 ± 0.1 K in thermostatted cells. The setup consisted of a Metrohm model 888 Titrando apparatus controlled by Metrohm TiAMO 1.2 software equipped with a combined gel electrode (VWR model 662 1759). Estimated precision was 0.2 mV and 0.003 ml for the electromotive force and titrant volume readings, respectively. All the potentiometric titrations were carried out under magnetic stirring and bubbling purified presaturated N2 through the solution to exclude O2 and CO2.
(§2) A 30 ml solution containing each ligand ([L] = 5 – 10 mM), NaCl and HCl was titrated with standard NaOH solutions. For the zinc(II)/ligand systems, the titrant solutions consisted of different amounts of ligand ([L] = 5 − 10 mM), zinc(II) ([Zn] = 0.5—5 mM) and a suitable amount of HCl and NaCl. All the measurements were carried out with an excess of the ligand, with respect to zinc(II) and at different zinc(II):ligand molar ratios. The selection of ratios investigated was determined by simulating titrations using Hyperquad Simulation and Speciation computer software (HySS)[41]. [Zn] and [L] were negligible compared to the background electrolyte concentrations. […] To account for the influence of zinc(II) hydrolysis in the zinc(II)/ligand systems, zinc(II) titrations were carried out separately at each ionic strength to determine the hydroxide constants so that these constants could be included in the equilibrium model used to refine the titration data. In these titrations, the zinc(II) concentration in the analyte solution was 0.7 mM.
(§3) Before each experiment, independent titrations of strong acid solutions with standard base were carried out under the same medium and ionic strength conditions as the systems to be investigated, with the aim of determining the electrode potential (E^0’) using GLEE software. In this way, the pH scale used was the […], pH = -log [H]^+, where [H]^+ is the free proton concentration. For each titration, approximately 80 to 100 data points were collected. The equilibrium state during titrations was checked by confirming the time required to reach equilibrium.
(§4) The software program Hyperquad was used to determine the equilibrium model and to calculate pKa and stability constants from the potentiometric data set[43]. For each set of pKa constants or zinc(II):ligand ratio studied, at least two repeat titrations were performed. The titration curves for each system were treated as a single set when refining the stability constants. This meant that the refinement procedure was run on both curves at the same time to derive a single set of constants. The error reported on the stability constants is the standard deviation given in the Hyperquad output file. Examples of Hyperquad files for the zinc(II)/PYR system are provided on the Zenodo repository (https://doi.org/10.5281/zenodo.4641710).
(§5) The ionic strength dependence of the stability constants was studied with the modified version of the Extended Debye–Hückel equation[28]. The Monte Carlo method, as described by Hu et al.[43], was used to estimate 95% confidence intervals on the parameters of ionic strength dependence; for each species, predicted stability constants were resampled using an inverse of the cumulative normal distribution function to give sets of simulated data from which the unknown parameters were optimized. An example Excel calculation file for the application of the modified version of the Extended Debye–Hückel equation to the zinc(II)/PYR system (including the calculation of error on parameters of ionic strength dependence) has been uploaded to the Zenodo repository (https://doi.org/10.5281/zenodo.4641710).
(§6) To quantify the improvement of using a direct vs. indirect method for studying ionic strength dependence, the Davies equation (Eq. 3) was applied to the zinc(II)/PYR data. Speciation calculations for a [Zn] = 10^–6 M and [L] = 10^–5 M system at infinite dilution were conducted with the aid of HySS. […]

[2] = Zinc(II)-ligand stability constants, potentiometric titration in NaCl; assay type: binding
Protocol: as §1, §2, §3, §4, §5, §6

[3] = Davies equation on 0.05 M NaCl data
[4] = Davies equation on 0.15 M NaCl data
[5] = Davies equation on 0.30 M NaCl data
[6] = Davies equation on 0.70 M NaCl data
[7] = Davies equation on 1.00 M NaCl data
[8] = intrinsic, modified Extended Debye–Hückel fit (direct), T = 298.1 K
[9] = parameter of ionic strength dependence, NaCl, T = 298.1 K

log β, 2H+ + L = H2L ([1]; 0.05 M NaCl, T = 298.1 K): 21.36 ± 0.07
log β, H+ + L = HL ([1]; 0.05 M NaCl, T = 298.1 K): 12.16 ± 0.03
log β, 2H+ + L = H2L ([1]; 0.15 M NaCl, T = 298.1 K): 21.14 ± 0.02
log β, H+ + L = HL ([1]; 0.15 M NaCl, T = 298.1 K): 11.97 ± 0.01
log β, 2H+ + L = H2L ([1]; 0.30 M NaCl, T = 298.1 K): 21.06 ± 0.02
log β, H+ + L = HL ([1]; 0.30 M NaCl, T = 298.1 K): 11.94 ± .01
log β, 2H+ + L = H2L ([1]; 0.70 M NaCl, T = 298.1 K): 21.04 ± 0.02
log β, H+ + L = HL ([1]; 0.70 M NaCl, T = 298.1 K): 11.96 ± 0.01
log β, 2H+ + L = H2L ([1]; 1.00 M NaCl, T = 298.1 K): 20.88 ± 0.02
log β, H+ + L = HL ([1]; 1.00 M NaCl, T = 298.1 K): 11.79 ± 0.01
log β0 (indirect), H2L [1, 3]: 21.61±0.07
log β0 (indirect), HL- [1, 3]: 12.50±0.03
log β0 (indirect), H2L [1, 4]: 21.48±0.02
log β0 (indirect), HL- [1, 4]: 12.45±0.01
log β0 (indirect), H2L [1, 5]: 21.45±0.02
log β0 (indirect), HL- [1, 5]: 12.48±0.01
log β0 (indirect), H2L [1, 6]: 21.4±0.02
log β0 (indirect), HL- [1, 6]: 12.46±0.01
log β0 (indirect), H2L [1, 7]: 21.18 ±0.02
log β0 (indirect), HL- [1, 7]: 12.20±0.01
logβ^0, 2H+ + L = H2L [1, 8]: 21.87±0.001 and 21.874 ± 0.001
logβ^0, H+ + L = HL [1, 8]: 12.49 ±0.009 and 12.489 ± 0.009
C, 2H+ + L = H2L [1, 9]: 0.296 ± 0.001
C, H+ + L = HL [1, 9]: 0.183 ± 0.015
decrease in the 1:1 zinc(II) stability constant ([2]; between 0.00 and 1.00 M NaCl): 20%
decrease of the 1:1 zinc(II) stability constant ([2]; between 0.00 and 1.00 M NaCl): 1.67 logβ units
Compound: Oc1ccccc1O [PYR, pyrocatecholate]
log β, Zn2+ + 2L = ZnL2 ([2]; 0.05 M NaCl, T = 298.1 K): 16.66±0.04
log β, Zn2+ + L = ZnL (1:1) ([2]; 0.05 M NaCl, T = 298.1 K): 9.29±0.03
log β, Zn2+ + 2L = ZnL2 ([2]; 0.15 M NaCl, T = 298.1 K): 15.93±0.02
log β, Zn2+ + L = ZnL (1:1) ([2]; 0.15 M NaCl, T = 298.1 K): 8.89±0.02
log β, Zn2+ + 2L = ZnL2 ([2]; 0.30 M NaCl, T = 298.1 K): 15.32±0.01
log β, Zn2+ + L = ZnL (1:1) ([2]; 0.30 M NaCl, T = 298.1 K): 8.57±0.01
log β, Zn2+ + 2L = ZnL2 ([2]; 0.70 M NaCl, T = 298.1 K): 15.09±0.01
log β, Zn2+ + L = ZnL (1:1) ([2]; 0.70 M NaCl, T = 298.1 K): 8.50±0.01
log β, Zn2+ + 2L = ZnL2 ([2]; 1.00 M NaCl, T = 298.1 K): 14.59±0.01
log β, Zn2+ + L = ZnL (1:1) ([2]; 1.00 M NaCl, T = 298.1 K): 8.23±0.01
log β0 (indirect), ZnL [2, 3]: 9.97±0.03 and 9.97
log β0 (indirect), ZnL22- [2, 3]: 16.54±0.04 and 16.54
log β0 (indirect), ZnL [2, 4]: 9.85±0.02 and 9.85
log β0 (indirect), ZnL22- [2, 4]: 15.70±0.02 and 15.70
log β0 (indirect), ZnL [2, 5]: 9.65±0.01 and 9.65
log β0 (indirect), ZnL22- [2, 5]: 15.03±0.01 and 15.03
log β0 (indirect), ZnL [2, 6]: 9.50±0.01 and 9.50
log β0 (indirect), ZnL22- [2, 6]: 14.84±0.01 and 14.84
log β0 (indirect), ZnL [2, 7]: 9.05 ±01 and 9.05
log β0 (indirect), ZnL22- [2, 7]: 14.42±0.01 and 14.42
logβ0, Zn2+ + 2L = ZnL2 [2, 8]: 17.136±0.007 and 17.14±0.007 and 17.14
logβ0, Zn2+ + L = ZnL (1:1) [2, 8]: 9.90±0.001 and 9.90
C, Zn2+ + 2L = ZnL2 ([2]; parameter of ionic strength dependence, NaCl): -0.924±0.012
